Measured values from patent US10179355B2, “Bioremediation enhancing agents and methods of use” (JRW BIOREMEDIATION, LLC, priority 2007, dated 2019).

Experiments:
[1] = tested on: dechlorinating bacteria known to convert PCE to ethene; assay: Set C: Nutrient Comparisons, PCE dechlorination microcosms (kinetics, Relative Rate); type: cell-based, Dehalococcoides and Dehalobacter spp.
From the text: (§1) Certain contaminated materials (or sites) may contain indigenous microbial communities that are sufficient for complete bioremediation of contaminants. For such sites, there is no need to add microbes unless the indigenous microbes are genetically deficient in achieving the desired clean-up goals. For those sites that are microbiologically limited, microorganisms may be added to the contaminated materials (or sites). In one embodiment, the inoculum may be a mixed culture of halo-respiring bacteria that have been enriched to reach an optimal cell density. These mixed cultures of halo-respiring bacteria may be typically obtained from sediment samples from rivers, streams or any waterways. More specifically, the inoculum used in the Examples was originated from a Sangamon River sediment sample (Lodge Park, Piatt County, Ill.) See, e.g., Brennan, R. A., Sanford, R. A. and Werth, C. J. (2006). “Biodegradation of Tetrachloroethene by Chitin Fermentation Products in a Continuous Flow Column System.” Journal of Environ. Engr., June 665-673. This culture had grown for several years on PCE, anaerobic basal salts medium, Wolfe's vitamin solution and various electron donors including lactate (1-2 millimolar (mM)), formate (4 mM) and chitin using the Volatile Interface Transfer Apparatus (VITA) reactor system at the University of Illinois. Brennan, R. A., and Sanford, R. A. (2002). “Continuous steady-state method using Tenax for delivering tetrachloroethene to chlororespiring bacteria.” Appl. Environ. Microbiol., 68(3), 1464-1467. […] Using 16S rRNA gene-specific primers, both Dehalococcoides and Dehalobacter spp. were detected. Quantitative real-time PCR has been used to determine that approximately 1.65×10^7 Dehalococcoides gene copies were present per ml of culture.
(§2) For purpose of this disclosure, each bottle may be started with a certain amount of PCE. At subsequent times each bottle may be sampled for the degradation daughter products of PCE, namely trichloroethene (TCE), cis-dichloroethene (DCE), vinyl chloride (VC) and ethene, etc. Trans-DCE and 1,1-DCE are also daughter products of PCE, but they may not be detectable under the conditions disclosed here.
(§3) The rate of degradation may be determined by calculating the number of pmoles of chloride ions removed from PCE and subsequently from the amounts of the daughter products generated. The calculation may be performed as follows: Chloride (μmoles)=[…]−4×PCE (μmoles)−3×TCE (pmoles)−2×DCE (μmoles)−VC (μmoles)
(§4) Next, the dechlorination rate may be determined for each bottle at each time by dividing the Chloride generated by the time (days). The data may be then normalized to the lactate control by taking the ratio of Chloride Rate (pmoles/day) and the Lactate Control Chloride Rate (pmoles/day). This ratio is called Relative Rate and is dimensionless.
(§5) As shown in the Examples, a paired t-test has been conducted to calculate the probability that the Relative Rate of one group (i.e. with Nutrient) is greater than the other group (i.e. without Nutrient). The null hypothesis is that the underlying means of the two paired groups are equal. The Probability that one group has higher Relative Rates than the other group is shown in various tables in the Examples.
(§6) The following components were used in the system for bioremediating contaminated ground water microcosms in Examples 2-8: • 160 milliliter (ml) stoppered serum bottles • 100 ml of anaerobic culture medium, groundwater containing an excess of bioavailable phosphorus and nitrogen at 0.5 mM Phosphate and 1 mM ammonium degassed with a nitrogen sparge • Nominally 1 gram of limestone • 19.54 micromoles (pmoles) Perchloroethene (PCE) • An excess of various electron donors were utilized • 3 ml of inoculum containing dechlorinating bacteria known to convert PCE to ethene. […]

[2] = tested on: dechlorinating bacteria known to convert PCE to ethene; assay: Set A: Ladder of YM, PCE dechlorination microcosms (kinetics, Relative Rate, paired t-test); type: cell-based, Dehalococcoides and Dehalobacter spp.
From the text: as §1, §2, §3
The alternative chloride calculation is: Chloride (μmoles)=TCE (μmoles)+2×DCE (μmoles)+3×VC (μmoles)+4×Ethene (μmoles)
as §4, §5, §6

With `CC(O)C(=O)[O-].[Na+]` (stereo not shown) [Lactate Control, sodium lactate] the “Average Relative Rate” value [1] was 1.00, the “Cl^− Rate ± s.d.” value ([1]; 0 days) was 0.00 ± 0.00 µmol and the “Cl^− ± s.d.” value ([1]; 0 days) was 0.00 ± 0.00 µmol. The “DCE ± s.d.” value ([1]; 0 days) was 0.00 ± 0.00 µmol, the “Ethene ± s.d.” value ([1]; 0 days) was 0.00 ± 0.00 µmol and the “PCE ± s.d.” value ([1]; 0 days) was 19.54 ± 0.00 µmol. The “TCE ± s.d.” value ([1]; 0 days) was 0.00 ± 0.00 µmol, the “VC ± s.d.” value ([1]; 0 days) was 0.00 ± 0.00 µmol and the “Cl^− Rate ± s.d.” value ([1]; 21 days) was 2.43 ± 0.13 µmol. The “Cl^− ± s.d.” value ([1]; 21 days) was 51.01 ± 2.69 µmol, the “DCE ± s.d.” value ([1]; 21 days) was 5.05 ± 0.62 µmol and the “Ethene ± s.d.” value ([1]; 21 days) was 0.09 ± 0.02 µmol. The “PCE ± s.d.” value ([1]; 21 days) was 0.66 ± 0.52 µmol, the “TCE ± s.d.” value ([1]; 21 days) was 1.20 ± 1.01 µmol and the “VC ± s.d.” value ([1]; 21 days) was 10.83 ± 1.56 µmol. For the same molecule, the “Cl^− Rate ± s.d.” value ([1]; 35 days) was 1.36 ± 0.03 µmol, the “Cl^− ± s.d.” value ([1]; 35 days) was 47.71 ± 1.16 µmol and the “DCE ± s.d.” value ([1]; 35 days) was 2.02 ± 1.88 µmol. The “Ethene ± s.d.” value ([1]; 35 days) was 0.54 ± 0.29 µmol, the “PCE ± s.d.” value ([1]; 35 days) was 0.00 ± 0.00 µmol and the “TCE ± s.d.” value ([1]; 35 days) was 0.00 ± 0.00 µmol. The “VC ± s.d.” value ([1]; 35 days) was 26.41 ± 2.65 µmol, the “Cl^− Rate ± s.d.” value ([1]; 49 days) was 1.03 ± 0.01 µmol and the “Cl^− ± s.d.” value ([1]; 49 days) was 50.42 ± 0.27 µmol. For the same molecule, the “DCE ± s.d.” value ([1]; 49 days) was 0.00 ± 0.00 µmol, the “Ethene ± s.d.” value ([1]; 49 days) was 3.79 ± 1.31 µmol and the “PCE ± s.d.” value ([1]; 49 days) was 0.00 ± 0.00 µmol. The “TCE ± s.d.” value ([1]; 49 days) was 0.00 ± 0.00 µmol, the “VC ± s.d.” value ([1]; 49 days) was 27.74 ± 0.27 µmol and the “Relative Rate” value ([1]; bottle 1, 21 days) was 1.06. For the same molecule, the “Relative Rate” value ([1]; bottle 1, 35 days) was 1.02, the “Relative Rate” value ([1]; bottle 1, 49 days) was 1.00 and the “Relative Rate” value ([1]; bottle 2, 21 days) was 0.99. The “Relative Rate” value ([1]; bottle 2, 35 days) was 0.97, the “Relative Rate” value ([1]; bottle 2, 49 days) was 0.99 and the “Relative Rate” value ([1]; bottle 3, 21 days) was 0.95. The “Relative Rate” value ([1]; bottle 3, 35 days) was 1.00, the “Relative Rate” value ([1]; bottle 3, 49 days) was 1.01 and the “Average Relative Rate” value [2] was 1.00. The “Cl^− Rate ± s.d.” value ([2]; 0 days) was 0.00 ± 0.00 µmol, the “Cl^− ± s.d.” value ([2]; 0 days) was 0.00 ± 0.00 µmol and the “DCE ± s.d.” value ([2]; 0 days) was 0.00 ± 0.00 µmol. For the same molecule, the “Ethene ± s.d.” value ([2]; 0 days) was 0.00 ± 0.00 µmol, the “PCE ± s.d.” value ([2]; 0 days) was 19.54 ± 0.00 µmol and the “TCE ± s.d.” value ([2]; 0 days) was 0.00 ± 0.00 µmol. For the same molecule, the “VC ± s.d.” value ([2]; 0 days) was 0.00 ± 0.00 µmol, the “Cl^− Rate ± s.d.” value ([2]; 14 days) was 2.58 ± 0.17 µmol and the “Cl^− ± s.d.” value ([2]; 14 days) was 36.18 ± 2.43 µmol. The “DCE ± s.d.” value ([2]; 14 days) was 0.42 ± 0.03 µmol, the “Ethene ± s.d.” value ([2]; 14 days) was 0.00 ± 0.00 µmol and the “PCE ± s.d.” value ([2]; 14 days) was 8.45 ± 0.55 µmol. For the same molecule, the “TCE ± s.d.” value ([2]; 14 days) was 2.00 ± 0.04 µmol, the “VC ± s.d.” value ([2]; 14 days) was 1.33 ± 0.41 µmol and the “Cl^− Rate ± s.d.” value ([2]; 35 days) was 1.33 ± 0.15 µmol. The “Cl^− ± s.d.” value ([2]; 35 days) was 46.47 ± 5.25 µmol, the “DCE ± s.d.” value ([2]; 35 days) was 1.60 ± 0.82 µmol and the “Ethene ± s.d.” value ([2]; 35 days) was 0.33 ± 0.29 µmol. For the same molecule, the “PCE ± s.d.” value ([2]; 35 days) was 4.08 ± 0.81 µmol, the “TCE ± s.d.” value ([2]; 35 days) was 2.77 ± 0.47 µmol and the “VC ± s.d.” value ([2]; 35 days) was 3.86 ± 2.11 µmol. The “Cl^− Rate ± s.d.” value ([2]; 53 days) was 1.06 ± 0.06 µmol, the “Cl^− ± s.d.” value ([2]; 53 days) was 56.17 ± 3.17 µmol and the “DCE ± s.d.” value ([2]; 53 days) was 5.31 ± 1.00 µmol. The “Ethene ± s.d.” value ([2]; 53 days) was 0.78 ± 0.79 µmol, the “PCE ± s.d.” value ([2]; 53 days) was 0.33 ± 0.27 µmol and the “TCE ± s.d.” value ([2]; 53 days) was 0.52 ± 0.47 µmol. For the same molecule, the “VC ± s.d.” value ([2]; 53 days) was 8.52 ± 6.24 µmol, the “Relative Rate” value ([2]; bottle 1, 14 days) was 0.92 and the “Relative Rate” value ([2]; bottle 1, 35 days) was 1.11. For the same molecule, the “Relative Rate” value ([2]; bottle 1, 53 days) was 0.96, the “Relative Rate” value ([2]; bottle 2, 14 days) was 1.02 and the “Relative Rate” value ([2]; bottle 2, 35 days) was 1.00. The “Relative Rate” value ([2]; bottle 2, 53 days) was 1.06, the “Relative Rate” value ([2]; bottle 3, 14 days) was 1.05 and the “Relative Rate” value ([2]; bottle 3, 35 days) was 0.89. For the same molecule, the “Relative Rate” value ([2]; bottle 3, 53 days) was 0.98.
